Measured values as given in ChEMBL document CHEMBL1130203, “Novel fluoroquinolone antibacterial agents containing oxime-substituted (aminomethyl)pyrrolidines: synthesis and antibacterial activity of 7-(4-(aminomethyl)-3-(methoxyimino)pyrrolidin-1-yl)-1-cyclopropyl-6- fluoro-4-oxo-1,4-dihydro[1,8]naphthyridine-3-carboxylic acid (LB20304)” (J Med Chem, 1997).
In brackets after ≈: the same amount, converted by molar mass.

Experiments:
Format in all cases: functional
Bacillus subtilis = experiment: Minimum inhibitory concentration (MIC) against Bacillus subtilis ATCC 6633
Escherichia coli [1] = experiment: Minimum inhibitory concentration (MIC) against Escherichia coli TEM9 2639E; details: Escherichia coli; read-out: MIC
Escherichia coli [2] = experiment: Minimum inhibitory concentration (MIC) against Escherichia coli 3190Y
Staphylococcus aureus [3] = experiment: Minimum inhibitory concentration (MIC) against Staphylococcus aureus 6538p.
[4] = tested on: Staphylococcus epidermidis; experiment: Minimum inhibitory concentration (MIC) against Staphylococcus epidermidis 887E
Enterococcus faecalis = experiment: Minimum inhibitory concentration (MIC) against Streptococcus faecalis 29212; details: Enterococcus faecalis; read-out: MIC
Staphylococcus aureus [5] = experiment: Minimum inhibitory concentration (MIC) against Staphylococcus aureus 241; details: Staphylococcus aureus; read-out: MIC
[6] = tested on: Acinetobacter calcoaceticus; experiment: Minimum inhibitory concentration (MIC) against Acinetobacter calcoaceticus 15473; details: Acinetobacter calcoaceticus; read-out: MIC
Pseudomonas aeruginosa = experiment: Minimum inhibitory concentration (MIC) against Pseudomonas aeruginosa 1912E; details: Pseudomonas aeruginosa; read-out: MIC
Staphylococcus aureus [7] = experiment: Minimum inhibitory concentration (MIC) against Staphylococcus aureus giorgio
Enterobacter cloacae = experiment: Minimum inhibitory concentration (MIC) against Enterobacter cloacae P99
Escherichia coli [8] = experiment: Minimum inhibitory concentration (MIC) against Escherichia coli 10536
[9] = tested on: Staphylococcus epidermidis; experiment: Minimum inhibitory concentration (MIC) against Staphylococcus epidermidis 178; details: Staphylococcus epidermidis; read-out: MIC
Klebsiella aerogenes = experiment: Minimum inhibitory concentration (MIC) against Klebsiella aerogenes 1082E; details: Klebsiella aerogenes; read-out: MIC
[10] = tested on: Acinetobacter calcoaceticus; experiment: Minimum inhibitory concentration (MIC) against Acinetobacter calcoaceticus 5473

NCC1CN(c2nc3c(cc2F)c(=O)c(C(=O)O)cn3C2CC2)C/C1=N\OCc1ccccc1 (configuration not stated)
MIC (Bacillus subtilis): < 0.008 µg/mL
MIC (Escherichia coli [1]): 0.063 µg/mL (≈ 0.135 µM)
MIC (Escherichia coli [2]): < 0.008 µg/mL
MIC (Staphylococcus aureus [3]): < 0.008 µg/mL
MIC [4]: < 0.008 µg/mL
MIC (Enterococcus faecalis): 0.031 µg/mL (≈ 0.0666 µM)
MIC (Staphylococcus aureus [5]): 2 µg/mL (≈ 4.3 µM)
MIC [6]: < 0.008 µg/mL
MIC (Pseudomonas aeruginosa): 1 µg/mL (≈ 2.15 µM)
MIC (Staphylococcus aureus [7]): < 0.008 µg/mL
MIC (Enterobacter cloacae): < 0.008 µg/mL
MIC (Escherichia coli [8]): < 0.008 µg/mL
MIC [9]: 2 µg/mL (≈ 4.3 µM)
MIC (Klebsiella aerogenes): 0.063 µg/mL (≈ 0.135 µM)

CO/N=C1\CN(c2nc3c(cc2F)c(=O)c(C(=O)O)cn3-c2ccc(F)cc2F)CC1CN (configuration not stated)
MIC (Bacillus subtilis): 0.016 µg/mL (≈ 0.0347 µM)
MIC (Escherichia coli [1]): 0.25 µg/mL (≈ 0.542 µM)
MIC (Escherichia coli [2]): 0.008 µg/mL (≈ 0.0173 µM)
MIC (Staphylococcus aureus [3]): 0.031 µg/mL (≈ 0.0672 µM)
MIC [4]: 0.016 µg/mL (≈ 0.0347 µM)
MIC (Enterococcus faecalis): 0.13 µg/mL (≈ 0.282 µM)
MIC (Staphylococcus aureus [5]): 8 µg/mL (≈ 17.3 µM)
MIC [6]: 0.13 µg/mL (≈ 0.282 µM)
MIC (Pseudomonas aeruginosa): 0.5 µg/mL (≈ 1.08 µM)
MIC (Staphylococcus aureus [7]): 0.031 µg/mL (≈ 0.0672 µM)
MIC (Enterobacter cloacae): 0.063 µg/mL (≈ 0.137 µM)
MIC (Escherichia coli [8]): 0.063 µg/mL (≈ 0.137 µM)
MIC [9]: 8 µg/mL (≈ 17.3 µM)
MIC (Klebsiella aerogenes): 0.25 µg/mL (≈ 0.542 µM)

CO/N=C1\CN(c2c(F)cc3c(=O)c(C(=O)O)cn(C4CC4)c3c2OC)CC1CN (configuration not stated)
MIC (Bacillus subtilis): 0.031 µg/mL (≈ 0.0741 µM)
MIC (Escherichia coli [1]): 0.25 µg/mL (≈ 0.597 µM)
MIC (Escherichia coli [2]): 0.031 µg/mL (≈ 0.0741 µM)
MIC (Staphylococcus aureus [3]): 0.031 µg/mL (≈ 0.0741 µM)
MIC [4]: 0.031 µg/mL (≈ 0.0741 µM)
MIC (Enterococcus faecalis): 0.063 µg/mL (≈ 0.151 µM)
MIC (Staphylococcus aureus [5]): 1 µg/mL (≈ 2.39 µM)
MIC [6]: 0.25 µg/mL (≈ 0.597 µM)
MIC (Pseudomonas aeruginosa): 2 µg/mL (≈ 4.78 µM)
MIC (Staphylococcus aureus [7]): 0.016 µg/mL (≈ 0.0382 µM)
MIC (Enterobacter cloacae): 0.063 µg/mL (≈ 0.151 µM)
MIC (Escherichia coli [8]): 0.063 µg/mL (≈ 0.151 µM)
MIC [9]: 1 µg/mL (≈ 2.39 µM)
MIC (Klebsiella aerogenes): 0.25 µg/mL (≈ 0.597 µM)

CO/N=C1\CN(c2nc3c(cc2F)c(=O)c(C(=O)O)cn3C2CC2)CC1CN(C)C (configuration not stated)
MIC (Bacillus subtilis): 0.016 µg/mL (≈ 0.0383 µM)
MIC (Escherichia coli [1]): 1 µg/mL (≈ 2.4 µM)
MIC (Escherichia coli [2]): 0.063 µg/mL (≈ 0.151 µM)
MIC (Staphylococcus aureus [3]): 0.13 µg/mL (≈ 0.311 µM)
MIC [4]: 0.13 µg/mL (≈ 0.311 µM)
MIC (Enterococcus faecalis): 1 µg/mL (≈ 2.4 µM)
MIC (Staphylococcus aureus [5]): 32 µg/mL (≈ 76.7 µM)
MIC [6]: 0.5 µg/mL (≈ 1.2 µM)
MIC (Pseudomonas aeruginosa): 16 µg/mL (≈ 38.3 µM)
MIC (Staphylococcus aureus [7]): 0.13 µg/mL (≈ 0.311 µM)
MIC (Enterobacter cloacae): 0.13 µg/mL (≈ 0.311 µM)
MIC (Escherichia coli [8]): 0.13 µg/mL (≈ 0.311 µM)
MIC [9]: 16 µg/mL (≈ 38.3 µM)
MIC (Klebsiella aerogenes): 0.016 µg/mL (≈ 0.0383 µM)

CC(C)O/N=C1\CN(c2nc3c(cc2F)c(=O)c(C(=O)O)cn3C2CC2)CC1CN (configuration not stated)
MIC (Bacillus subtilis): < 0.008 µg/mL
MIC (Escherichia coli [1]): 0.063 µg/mL (≈ 0.151 µM)
MIC (Escherichia coli [2]): < 0.008 µg/mL
MIC (Staphylococcus aureus [3]): < 0.008 µg/mL
MIC [4]: < 0.008 µg/mL
MIC (Enterococcus faecalis): 0.063 µg/mL (≈ 0.151 µM)
MIC (Staphylococcus aureus [5]): 2 µg/mL (≈ 4.79 µM)
MIC [6]: 0.031 µg/mL (≈ 0.0743 µM)
MIC (Pseudomonas aeruginosa): 1 µg/mL (≈ 2.4 µM)
MIC (Staphylococcus aureus [7]): < 0.008 µg/mL
MIC (Enterobacter cloacae): < 0.008 µg/mL
MIC (Escherichia coli [8]): < 0.008 µg/mL
MIC [9]: 1 µg/mL (≈ 2.4 µM)
MIC (Klebsiella aerogenes): 0.13 µg/mL (≈ 0.311 µM)

NCC1CN(c2nc3c(cc2F)c(=O)c(C(=O)O)cn3C2CC2)C/C1=N\O (configuration not stated)
MIC (Bacillus subtilis): 0.016 µg/mL (≈ 0.0426 µM)
MIC (Escherichia coli [1]): 0.13 µg/mL (≈ 0.346 µM)
MIC (Escherichia coli [2]): 0.016 µg/mL (≈ 0.0426 µM)
MIC (Staphylococcus aureus [3]): 0.031 µg/mL (≈ 0.0826 µM)
MIC [4]: 0.031 µg/mL (≈ 0.0826 µM)
MIC (Enterococcus faecalis): 0.25 µg/mL (≈ 0.666 µM)
MIC (Staphylococcus aureus [5]): 8 µg/mL (≈ 21.3 µM)
MIC [6]: 0.13 µg/mL (≈ 0.346 µM)
MIC (Pseudomonas aeruginosa): 2 µg/mL (≈ 5.33 µM)
MIC (Staphylococcus aureus [7]): 0.031 µg/mL (≈ 0.0826 µM)
MIC (Enterobacter cloacae): 0.031 µg/mL (≈ 0.0826 µM)
MIC (Escherichia coli [8]): 0.031 µg/mL (≈ 0.0826 µM)
MIC [9]: 8 µg/mL (≈ 21.3 µM)
MIC (Klebsiella aerogenes): 0.13 µg/mL (≈ 0.346 µM)

CCCO/N=C1\CN(c2nc3c(cc2F)c(=O)c(C(=O)O)cn3C2CC2)CC1CN (configuration not stated)
MIC (Bacillus subtilis): < 0.008 µg/mL
MIC (Escherichia coli [1]): 0.063 µg/mL (≈ 0.151 µM)
MIC (Escherichia coli [2]): < 0.008 µg/mL
MIC (Staphylococcus aureus [3]): 0.008 µg/mL (≈ 0.0192 µM)
MIC [4]: < 0.008 µg/mL
MIC (Enterococcus faecalis): 0.063 µg/mL (≈ 0.151 µM)
MIC (Staphylococcus aureus [5]): 2 µg/mL (≈ 4.79 µM)
MIC [6]: 0.031 µg/mL (≈ 0.0743 µM)
MIC (Pseudomonas aeruginosa): 1 µg/mL (≈ 2.4 µM)
MIC (Staphylococcus aureus [7]): < 0.008 µg/mL
MIC (Enterobacter cloacae): < 0.008 µg/mL
MIC (Escherichia coli [8]): < 0.008 µg/mL
MIC [9]: 1 µg/mL (≈ 2.4 µM)
MIC (Klebsiella aerogenes): 0.13 µg/mL (≈ 0.311 µM)

CO/N=C1\CN(c2c(F)cc3c(=O)c(C(=O)O)cn(C4CC4)c3c2Cl)CC1CN (configuration not stated)
MIC (Bacillus subtilis): 0.016 µg/mL (≈ 0.0378 µM)
MIC (Escherichia coli [1]): 0.25 µg/mL (≈ 0.591 µM)
MIC [10]: 0.25 µg/mL (≈ 0.591 µM)
MIC (Escherichia coli [2]): 0.016 µg/mL (≈ 0.0378 µM)
MIC (Staphylococcus aureus [3]): 0.031 µg/mL (≈ 0.0733 µM)
MIC [4]: 0.031 µg/mL (≈ 0.0733 µM)
MIC (Enterococcus faecalis): 0.13 µg/mL (≈ 0.307 µM)
MIC (Staphylococcus aureus [5]): 1 µg/mL (≈ 2.36 µM)
MIC (Pseudomonas aeruginosa): 1 µg/mL (≈ 2.36 µM)
MIC (Staphylococcus aureus [7]): 0.016 µg/mL (≈ 0.0378 µM)
MIC (Enterobacter cloacae): 0.063 µg/mL (≈ 0.149 µM)
MIC (Escherichia coli [8]): 0.031 µg/mL (≈ 0.0733 µM)
MIC [9]: 1 µg/mL (≈ 2.36 µM)
MIC (Klebsiella aerogenes): 0.25 µg/mL (≈ 0.591 µM)
